Where “and” joins values, the source holds several entries; their conditions need not be identical. Equal entries are not always repeated. Where two headings read alike, the source gives them in different places.
Columns and labels:
[1] = system: cyclin K–eGFP degradation reporter; experiment: Cyclin K reporter stability analysis (dual-color cyclin K–eGFP reporter); type: cell-based, human; conditions: source data sheet correlations; read-out: DC50
Summary of the method: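 Cells (HEK293T–Cas9, reporter-expressing) at 1 × 10^6 ml^−1; 5 h compound or DMSO; flow cytometry; gMFI eGFP ÷ mCherry on round mCherry-positive events; normalized to 3 DMSO controls.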

[2] = target: CDK12–cyclin K (Homo sapiens, UniProt Q9NYV4); experiment: Lanthascreen kinase binding assay, CDK12; conditions: for Lanthascreen raw signal, sheet CDK12: series r37, duplicates
Description: (§1) Lanthascreen experiments were performed using commercially available reagents (Thermo Fisher) and according to the manufacturer’s instructions.

[3] = system: HEK293T cells; experiment: Drug sensitivity assay (CellTiter-Glo viability) with or without MLN4924 pretreatment; type: cell-based, human; conditions: Supplementary Table 2
Summary of the method: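 Viability of HEK293T–Cas9 cells was compared after 3-day drug treatment with or without 100 nM MLN4924 pretreatment (2 h, versus DMSO). Values are CellTiter-Glo signals relative to DMSO controls.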

[4] = target: T1, CDK2–cyclin A (Homo sapiens, UniProt P24941); experiment: Lanthascreen kinase binding assay, CDK2; conditions: for Lanthascreen signal, sheet CDK2: raw replicates, experiment r36-r46
T1 construct: purchased Thermo Fisher
Description: as §1

[5] = target: T2, CDK12–cyclin K and DDB1 (Homo sapiens, UniProt Q16531+Q9NYV4, K965R); experiment: TR-FRET ternary complex formation assay (compound titration); type: binding; conditions: for EC50: read-out: TR-FRET EC50
T2 construct: His6–CDK12 (a.a. 713–1,052); full-length or beta-propeller B domain deletion (ΔBPB: a.a. 396–705 deleted) constructs of His6–DDB1ΔBPB, StrepII–Avi–DDB1, or His6–Spy–DDB1; made in house; host or cells: Trichoplusia ni High Five insect cells (baculovirus)
Summary of the method: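 Delayed (70 μs) time-resolved read; FRET computed as 520 nm over 490 nm emission.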

[6] = target: T3, CDK9–cyclin T (Homo sapiens, UniProt P50750); experiment: Lanthascreen kinase binding assay, CDK9; conditions: for Lanthascreen TR-FRET signal (raw ratio), sheet CDK9: third titration set (r25), duplicates
T3 construct: purchased Thermo Fisher
Description: as §1

Sequence of CDK12–cyclin K (Q9NYV4 713-1052): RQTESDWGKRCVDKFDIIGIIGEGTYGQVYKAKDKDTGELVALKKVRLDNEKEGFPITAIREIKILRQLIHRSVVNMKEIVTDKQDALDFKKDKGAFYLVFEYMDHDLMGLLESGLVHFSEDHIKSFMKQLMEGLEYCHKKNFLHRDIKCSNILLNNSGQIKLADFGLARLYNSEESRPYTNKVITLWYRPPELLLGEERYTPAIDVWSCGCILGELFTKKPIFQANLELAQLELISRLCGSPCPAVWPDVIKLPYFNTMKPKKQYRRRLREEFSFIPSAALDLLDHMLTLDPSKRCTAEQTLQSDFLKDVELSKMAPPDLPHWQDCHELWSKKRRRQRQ
Sequence of CDK12–cyclin K (O75909 1-267 partner limits assumed): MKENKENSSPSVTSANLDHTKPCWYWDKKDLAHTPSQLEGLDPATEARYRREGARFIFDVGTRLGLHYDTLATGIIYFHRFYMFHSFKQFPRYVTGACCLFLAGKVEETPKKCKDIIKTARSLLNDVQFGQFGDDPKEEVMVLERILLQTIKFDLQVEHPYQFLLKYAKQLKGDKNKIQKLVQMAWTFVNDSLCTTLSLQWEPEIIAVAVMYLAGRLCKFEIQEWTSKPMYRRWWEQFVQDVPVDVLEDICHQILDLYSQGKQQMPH
T3 sequence (P50750 whole entry): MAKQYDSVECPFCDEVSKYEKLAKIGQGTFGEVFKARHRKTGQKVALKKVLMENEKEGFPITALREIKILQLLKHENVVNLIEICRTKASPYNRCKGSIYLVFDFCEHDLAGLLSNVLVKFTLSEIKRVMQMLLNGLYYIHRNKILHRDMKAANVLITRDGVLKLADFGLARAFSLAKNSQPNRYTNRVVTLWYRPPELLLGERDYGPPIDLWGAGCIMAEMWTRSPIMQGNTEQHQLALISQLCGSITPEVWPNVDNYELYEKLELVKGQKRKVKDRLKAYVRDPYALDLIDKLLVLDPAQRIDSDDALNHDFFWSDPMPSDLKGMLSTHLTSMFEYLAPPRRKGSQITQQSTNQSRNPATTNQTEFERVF
T3 sequence (O60563 whole entry partner): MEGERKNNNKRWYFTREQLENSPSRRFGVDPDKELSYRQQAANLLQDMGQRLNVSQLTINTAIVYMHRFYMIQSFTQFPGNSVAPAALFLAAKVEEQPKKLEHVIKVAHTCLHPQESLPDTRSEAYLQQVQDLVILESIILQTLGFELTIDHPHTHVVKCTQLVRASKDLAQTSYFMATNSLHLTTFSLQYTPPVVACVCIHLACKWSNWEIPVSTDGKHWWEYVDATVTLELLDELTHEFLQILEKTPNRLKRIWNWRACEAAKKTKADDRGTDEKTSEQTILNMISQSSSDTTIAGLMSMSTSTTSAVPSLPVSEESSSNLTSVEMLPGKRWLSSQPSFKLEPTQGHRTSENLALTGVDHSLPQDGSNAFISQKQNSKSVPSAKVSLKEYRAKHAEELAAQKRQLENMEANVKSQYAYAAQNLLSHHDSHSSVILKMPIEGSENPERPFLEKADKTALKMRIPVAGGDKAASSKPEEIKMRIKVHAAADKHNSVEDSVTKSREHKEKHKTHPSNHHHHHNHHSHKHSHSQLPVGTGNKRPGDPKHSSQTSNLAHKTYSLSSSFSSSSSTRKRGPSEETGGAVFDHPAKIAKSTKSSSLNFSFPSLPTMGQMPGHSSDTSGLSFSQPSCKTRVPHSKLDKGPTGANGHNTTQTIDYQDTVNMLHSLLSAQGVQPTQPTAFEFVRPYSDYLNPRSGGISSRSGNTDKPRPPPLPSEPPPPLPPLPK
T2 sequence (Q9NYV4 713-1052 K965R): as the sequence (Q9NYV4 713-1052) above, with K253R counted along it
T2 sequence (O75909 1-267 partner): as the sequence (O75909 1-267 partner limits assumed) above
T2 sequence (Q16531 whole entry): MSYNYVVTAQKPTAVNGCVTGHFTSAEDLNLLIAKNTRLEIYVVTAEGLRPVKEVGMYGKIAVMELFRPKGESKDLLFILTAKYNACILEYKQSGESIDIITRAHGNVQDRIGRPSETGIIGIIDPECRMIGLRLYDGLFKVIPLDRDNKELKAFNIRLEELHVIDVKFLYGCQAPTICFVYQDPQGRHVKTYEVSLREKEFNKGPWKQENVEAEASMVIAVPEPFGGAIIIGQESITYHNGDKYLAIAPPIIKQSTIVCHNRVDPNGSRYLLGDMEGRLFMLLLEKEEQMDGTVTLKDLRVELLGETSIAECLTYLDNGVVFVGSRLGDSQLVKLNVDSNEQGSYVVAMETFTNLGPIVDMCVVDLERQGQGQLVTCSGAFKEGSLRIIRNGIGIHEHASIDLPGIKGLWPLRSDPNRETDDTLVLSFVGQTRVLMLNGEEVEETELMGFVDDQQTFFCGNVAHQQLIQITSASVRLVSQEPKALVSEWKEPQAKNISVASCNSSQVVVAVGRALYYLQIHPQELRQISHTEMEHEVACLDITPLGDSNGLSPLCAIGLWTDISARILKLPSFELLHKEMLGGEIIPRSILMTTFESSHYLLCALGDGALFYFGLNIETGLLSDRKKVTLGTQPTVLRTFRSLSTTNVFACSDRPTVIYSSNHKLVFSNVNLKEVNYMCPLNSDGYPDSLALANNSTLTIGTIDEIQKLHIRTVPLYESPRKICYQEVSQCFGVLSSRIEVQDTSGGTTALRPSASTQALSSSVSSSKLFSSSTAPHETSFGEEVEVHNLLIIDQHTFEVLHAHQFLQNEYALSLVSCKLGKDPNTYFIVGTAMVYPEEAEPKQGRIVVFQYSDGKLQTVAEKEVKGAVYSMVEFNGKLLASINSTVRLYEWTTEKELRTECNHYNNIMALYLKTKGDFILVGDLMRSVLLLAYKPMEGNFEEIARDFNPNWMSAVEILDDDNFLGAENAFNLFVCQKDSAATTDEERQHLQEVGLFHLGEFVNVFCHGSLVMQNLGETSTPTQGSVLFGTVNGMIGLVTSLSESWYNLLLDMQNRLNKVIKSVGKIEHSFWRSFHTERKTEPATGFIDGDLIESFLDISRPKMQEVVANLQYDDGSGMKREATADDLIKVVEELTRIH

Q: Which DC50 [1] does the source give for `CC(C)n1cnc2c(NCc3nc4cc(Cl)c(Cl)cc4[nH]3)nc(N3CCOCC3)nc21` [DS18] here?
A: The DC50 was 13 nM.

Q: What about the “CDK inhibitory selectivity, result in words” value ([2]; Lanthascreen across CDK2/9/12) of the same compound?
A: The value was “CDK12 selective”.

Q: What about the IC50 ([2]; Supplementary Table 2, read-out: Lanthascreen IC50 [nM] CDK12) of the same compound?
A: The IC50 was 289 nM.

Q: And the “Lanthascreen raw signal, sheet CDK12” value ([2]; compound 0.038147 nM)?
A: The value was 0.01361 and 0.01362.

Q: What about the “Lanthascreen raw signal, sheet CDK12” value ([2]; compound 0.152588 nM) of the same compound?
A: Its value is 0.01347 and 0.01332.

Q: What about the “Lanthascreen raw signal, sheet CDK12” value ([2]; compound 0.610352 nM) of the same compound?
A: Its value is 0.0127 and 0.0128.

Q: And the “Lanthascreen raw signal, sheet CDK12” value ([2]; compound 9.76563 nM)?
A: Its value is 0.01118 and 0.01013.

Q: What about the “Lanthascreen raw signal, sheet CDK12” value ([2]; compound 39.0625 nM) of the same compound?
A: The value was 0.009017 and 0.009485.

Q: And the “Lanthascreen raw signal, sheet CDK12” value ([2]; compound 156.25 nM)?
A: The value was 0.008554 and 0.0083.

Q: What about the “Lanthascreen raw signal, sheet CDK12” value ([2]; compound 625 nM) of the same compound?
A: The value was 0.007301 and 0.007453.

Q: And the “Lanthascreen raw signal, sheet CDK12” value ([2]; compound 2500 nM)?
A: Its value is 0.006348 and 0.005959.

Q: And the “Lanthascreen raw signal, sheet CDK12” value ([2]; compound 10000 nM)?
A: The value was 0.004442 and 0.004613.

Q: What about the EC50 ([3]; Homo sapiens, HEK-293T, HEK293T viability, 72 h, compound alone, read-out: Cellular assays EC50) of the same compound?
A: The EC50 was 101 nM.

Q: And the Toxicity rescue ([3]; MLN4924-mediated cytotoxicity rescue, 10 µM used where n.d.)?
A: Its Toxicity rescue is 89%.

Q: And the “Lanthascreen signal, sheet CDK2” value ([4]; Compound 0.038147 nM)?
A: The value was 0.01344 and 0.01366.

Q: What about the “Lanthascreen signal, sheet CDK2” value ([4]; Compound 0.152588 nM) of the same compound?
A: The value was 0.01349 and 0.01367.

Q: What about the “Lanthascreen signal, sheet CDK2” value ([4]; Compound 0.610352 nM) of the same compound?
A: The value was 0.01404 and 0.01386.

Q: What about the “Lanthascreen signal, sheet CDK2” value ([4]; Compound 9.76563 nM) of the same compound?
A: Its value is 0.01422 and 0.01378.

Q: What about the “Lanthascreen signal, sheet CDK2” value ([4]; Compound 39.0625 nM) of the same compound?
A: Its value is 0.01396 and 0.01343.

Q: What about the “Lanthascreen signal, sheet CDK2” value ([4]; Compound 156.25 nM) of the same compound?
A: The value was 0.01511 and 0.01391.

Q: And the “Lanthascreen signal, sheet CDK2” value ([4]; Compound 625 nM)?
A: The value was 0.01354 and 0.01331.

Q: And the “Lanthascreen signal, sheet CDK2” value ([4]; Compound 2500 nM)?
A: The value was 0.01311 and 0.01172.

Q: And the “Lanthascreen signal, sheet CDK2” value ([4]; Compound 10000 nM)?
A: The value was 0.009843 and 0.008946.

Q: And the IC50 ([4]; Supplementary Table 2, read-out: Lanthascreen IC50 [nM] CDK2)?
A: The IC50 was 5730 nM.

Q: And the “TR-FRET signal at compound concentration 0.468 nM” value ([5]; compound concentration 0.468 nM, raw replicate titration data)?
A: Its value is 0.2789 and 0.2869 and 0.2441 and 0.2388.

Q: What about the “TR-FRET signal at compound concentration 2.16 nM” value ([5]; compound concentration 2.16 nM, raw replicate titration data) of the same compound?
A: The value was 0.4628 and 0.4735 and 0.4069 and 0.4155.

Q: And the “TR-FRET signal at compound concentration 3.6 nM” value ([5]; compound concentration 3.6 nM, raw replicate titration data)?
A: The value was 0.8592 and 0.9781 and 0.8008 and 0.8631.

Q: And the “TR-FRET signal at compound concentration 7.92001 nM” value ([5]; compound concentration 7.92001 nM, raw replicate titration data)?
A: The value was 1.943 and 2.09 and 1.796 and 1.964.

Q: What about the “TR-FRET signal at compound concentration 15.84 nM” value ([5]; compound concentration 15.84 nM, raw replicate titration data) of the same compound?
A: The value was 3.635 and 3.77 and 3.448 and 3.586.

Q: What about the “TR-FRET signal at compound concentration 30.96 nM” value ([5]; compound concentration 30.96 nM, raw replicate titration data) of the same compound?
A: Its value is 4.1538 and 4.3056 and 4.1745 and 4.207.

Q: What about the “TR-FRET signal at compound concentration 62.6401 nM” value ([5]; compound concentration 62.6401 nM, raw replicate titration data) of the same compound?
A: Its value is 4.1015 and 4.249 and 4.2539 and 4.27.

Q: What about the “TR-FRET signal at compound concentration 125.28 nM” value ([5]; compound concentration 125.28 nM, raw replicate titration data) of the same compound?
A: The value was 4.175 and 4.298 and 4.2336 and 4.275.

Q: And the “TR-FRET signal at compound concentration 244.8 nM” value ([5]; compound concentration 244.8 nM, raw replicate titration data)?
A: Its value is 4.152 and 4.298 and 4.309 and 4.217.

Q: What about the “TR-FRET signal at compound concentration 993.601 nM” value ([5]; compound concentration 993.601 nM, raw replicate titration data) of the same compound?
A: The value was 4.169 and 4.339 and 4.296 and 4.306.

Q: What about the “TR-FRET signal at compound concentration 2001.6 nM” value ([5]; compound concentration 2001.6 nM, raw replicate titration data) of the same compound?
A: Its value is 4.114 and 4.419 and 4.291 and 4.3409.

Q: What about the EC50 ([5]; in vitro complex formation, 50 nM CDK12–cyclin K, 100 nM DDB1, text and figures) of the same compound?
A: The EC50 was 9 ± 0.2 nM.

Q: What about the EC50 ([5]; source data sheet correlations) of the same compound?
A: Its EC50 is 8.77 nM.

Q: And the IC50 ([6]; Supplementary Table 2, read-out: Lanthascreen IC50 [nM] CDK9)?
A: Its IC50 is 4480 nM.

Q: And the “Lanthascreen TR-FRET signal (raw ratio), sheet CDK9” value ([6]; compound 0.038147 nM)?
A: The value was 0.02012 and 0.0204.

Q: What about the “Lanthascreen TR-FRET signal (raw ratio), sheet CDK9” value ([6]; compound 0.152588 nM) of the same compound?
A: The value was 0.02154 and 0.01902.

Q: What about the “Lanthascreen TR-FRET signal (raw ratio), sheet CDK9” value ([6]; compound 0.610352 nM) of the same compound?
A: The value was 0.02155 and 0.01817.

Q: And the “Lanthascreen TR-FRET signal (raw ratio), sheet CDK9” value ([6]; compound 9.76563 nM)?
A: The value was 0.02115 and 0.01877.

Q: What about the “Lanthascreen TR-FRET signal (raw ratio), sheet CDK9” value ([6]; compound 39.0625 nM) of the same compound?
A: Its value is 0.01878 and 0.01673.

Q: What about the “Lanthascreen TR-FRET signal (raw ratio), sheet CDK9” value ([6]; compound 156.25 nM) of the same compound?
A: The value was 0.02006 and 0.01591.

Q: And the “Lanthascreen TR-FRET signal (raw ratio), sheet CDK9” value ([6]; compound 625 nM)?
A: Its value is 0.01306 and 0.01486.

Q: And the “Lanthascreen TR-FRET signal (raw ratio), sheet CDK9” value ([6]; compound 2500 nM)?
A: The value was 0.01488 and 0.01061.

Q: What about the “Lanthascreen TR-FRET signal (raw ratio), sheet CDK9” value ([6]; compound 10000 nM) of the same compound?
A: The value was 0.007693 and 0.006879.

From PMC10746543, “Design principles for cyclin K molecular glue degraders” (Nature Chemical Biology, 2023)
